Measurements: patent US6906095B2, “Indolylalkylidenehydrazine-carboximidamide derivatives as 5-hydroxytryptamine-6 ligands” (Wyeth, priority 2002, dated 2005)

Target: T1, human cloned 5-HT6 receptors (Homo sapiens, UniProt P50406)
T1 construct: expressed in transfected cells; host or cells: Hela cells
Assay: 5-HT6 binding affinity, [3H]-LSD displacement in membranes of Hela cells
Conditions: not given
Protocol: The affinity of test compounds for the serotonin 5-HT6 receptor is evaluated in the following manner. Cultured Hela cells expressing human cloned 5-HT6 receptors are harvested and centrifuged at low speed (1,000×g) for 10.0 min to remove the culture media. The harvested cells are suspended in half volume of fresh physiological phosphate buffered saline solution and recentrifuged at the same speed. This operation is repeated. The collected cells are then homogenized in ten volumes of 50 mM Tris.HCl (pH 7.4) and 0.5 mM EDTA. The homogenate is centrifuged at 40,000×g for 30.0 min and the precipitate is collected. The obtained pellet is resuspended in 10 volumes of Tris.HCl buffer and recentrifuged at the same speed. The final pellet is suspended in a small volume of Tris.HCl buffer and the tissue protein content is determined in aliquots of 10-25 μl volumes. Bovine Serum Albumin is used as the standard in the protein determination according to the method described in Lowry et al., J. Biol. Chem., 193:265 (1951). The volume of the suspended cell membranes is adjusted to give a tissue protein concentration of 1.0 mg/ml of suspension. The prepared membrane suspension (10 times concentrated) is aliquoted in 1.0 ml volumes and stored at −70° C. until used in subsequent binding experiments.
The reaction is allowed to proceed in the dark for 120 min at room temperature, at which time, the bound ligand-receptor complex is filtered off on a 96 well unifilter with a Packard Filtermate® 196 Harvester. The bound complex caught on the filter disk is allowed to air dry and the radioactivity is measured in a Packard TopCount® equipped with six photomultiplier detectors, after the addition of 40.0 μl Microscint®-20 scintillant to each shallow well. The unifilter plate is heat-sealed and counted in a PackardTopCount® with a tritium efficiency of 31.0%.
Specific binding to the 5-HT6 receptor is defined as the total radioactivity bound less the amount bound in the presence of 10.0 μM unlabeled methiothepin. Binding in the presence of varying concentrations of test compound is expressed as a percentage of specific binding in the absence of test compound. The results are plotted as logit % bound versus log concentration of test compound. Nonlinear regression analysis of data points with a computer assisted program Prism® yields both the IC50 and the Ki values of test compounds with 95% confidence limits.
The amount of displacement by the test compound is given in percent (%) inhibition and is derived from the following equation: [formula] where B0 is the amount of CPM bound in the presence of the testing agent. NSB represents the CPM bound in the presence of a saturating concentration of a displacer and TB represents the total amount of CPM bound at zero (0) concentration of test compound.
Alternatively, a linear regression line of decline of data points is plotted, from which the IC50 value can be read off and the Ki value determined by solving the following equation: [formula] where L is the concentration of the radioactive ligand used and KD is the dissociation constant of the ligand for the receptor, both expressed in nM.

T1 sequence (P50406 whole entry): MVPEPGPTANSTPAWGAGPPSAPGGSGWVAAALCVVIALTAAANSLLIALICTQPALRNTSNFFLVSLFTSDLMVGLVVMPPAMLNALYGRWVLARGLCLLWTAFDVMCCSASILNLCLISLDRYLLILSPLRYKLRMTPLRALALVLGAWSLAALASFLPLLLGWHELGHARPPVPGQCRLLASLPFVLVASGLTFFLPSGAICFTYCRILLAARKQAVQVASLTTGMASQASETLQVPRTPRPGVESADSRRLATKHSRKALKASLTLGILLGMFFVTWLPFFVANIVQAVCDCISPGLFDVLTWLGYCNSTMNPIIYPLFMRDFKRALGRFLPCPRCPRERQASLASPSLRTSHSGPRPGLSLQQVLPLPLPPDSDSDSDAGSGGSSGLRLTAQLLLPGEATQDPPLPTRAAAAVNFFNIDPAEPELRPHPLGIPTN

| Structure (SMILES) | Ki | inhibition at 1 µM |
| --- | --- | --- |
| CC(=NNC(=N)N)c1cn(S(=O)(=O)c2cccc(Br)c2)c2ccccc12 [Example 32, 2-(1-{1-[(3-bromophenyl)sulfonyl]-1H-indol-3-yl}ethylidene)hydrazinecarboximidamide] | 26 nM | – |
| N=C(N)NN=C(c1cn(S(=O)(=O)c2ccccc2)c2ccccc12)C1CCCCC1 [Example 2, 2-{Cyclohexyl[1-(phenylsulfonyl)-1H-indol-3-yl]methylidene}-hydrazinecarboximidamide] | – | 69.2% |
| CC(=NNC(=N)N)c1cn(S(=O)(=O)c2ccccc2)c2ccccc12 [Example 9, 2-{1-[1-(phenylsulfonyl)-1H-indol-3-yl]ethylidene}hydrazinecarboximidamide] | 7 nM | – |

Same assay, conditions: test compound dose 10 nM; [3H]-LSD 3.0 nM

| Structure (SMILES) | inhibition at 0.01 µM |
| --- | --- |
| N=C(N)NN=C(c1cn(S(=O)(=O)c2ccccc2)c2ccccc12)C1CC1 [Example 68, 2-{cyclopropyl[1-(phenylsulfonyl)-1H-indol-3-yl]methylidene}hydrazinecarboximidamide] | 68.3% |

Same assay, conditions: test compound dose 100 nM; [3H]-LSD 3.0 nM

| Structure (SMILES) | inhibition at 0.1 µM | % Inhibition |
| --- | --- | --- |
| CC(=NNC(=N)N)c1cn(S(=O)(=O)c2cc(Cl)sc2Cl)c2ccccc12 [Example 41, 2-(1-{1-[(2,5-dichlorothien-3-yl)sulfonyl]-1H-indol-3-yl}ethylidene)hydrazinecarboximidamide] | 55% | – |
| CC(=NNC(=N)N)c1cn(S(=O)(=O)c2cccc(Br)c2)c2ccccc12 [Example 32, 2-(1-{1-[(3-bromophenyl)sulfonyl]-1H-indol-3-yl}ethylidene)hydrazinecarboximidamide] | 76.2% | – |
| COc1ccc(S(=O)(=O)n2cc(C(=NNC(=N)N)C3CC3)c3cc(Cl)ccc32)cc1 [Example 80, 2-[{5-chloro-1-[(4-methoxyphenyl)sulfonyl]-1H-indol-3-yl}(cyclopropyl)methylidene]hydrazinecarboximidamide] | 74% | – |
| N=C(N)NN=C(c1cn(S(=O)(=O)c2ccccc2)c2cc(F)ccc12)C1CC1 [Example 114, 2-{cyclopropyl[6-fluoro-1-(phenylsulfonyl)-1H-indol-3-yl]methylidene}hydrazinecarboximidamide] | 85.2% | – |
| CC(=NNC(=N)N)c1cn(C(=O)Nc2ccccc2)c2ccccc12 [Example 129, 3-(1-{2-[amino(imino)methyl]hydrazono}ethyl)-N-phenyl-1H-indole-1-carboxamide] | 23.4% | – |
| CC(=NNC(=N)N)c1cn(S(=O)(=O)c2cc(Cl)ccc2Cl)c2ccccc12 [Example 40, 2-(1-{1-[(2,5-dichlorophenyl)sulfonyl]-1H-indol-3-yl}ethylidene)hydrazinecarboximidamide] | 33.3% | – |
| CC(=NNC(=N)N)c1cn(S(=O)(=O)c2ccc(Br)cc2)c2ccccc12 [Example 30, 2-(1-{1-[(4-bromophenyl)sulfonyl]-1H-indol-3-yl}ethylidene)hydrazinecarboximidamide] | 65% | – |
| CC(=NNC(=N)N)c1cn(S(=O)(=O)c2cccc3nsnc23)c2ccccc12 [Example 24, 2-{1-[1-(2,1,3-benzothiadiazol-4-ylsulfonyl)-1H-indol-3-yl]ethylidene}hydrazinecarboximidamide] | 62.9% | – |
| CC(=NNC(=N)N)c1cn(S(=O)(=O)c2ccc([N+](=O)[O-])cc2)c2ccccc12 [Example 52, 2-(1-{1-[(4-nitrophenyl)sulfonyl]-1H-indol-3-yl}ethylidene)hydrazinecarboximidamide] | 28.2% | – |
| CCCCS(=O)(=O)n1cc(C(C)=NNC(=N)N)c2ccc(F)cc21 [Example 103, 2-{1-[1-(butylsulfonyl)-6-fluoro-1H-indol-3-yl]ethylidene}hydrazinecarboximidamide] | 69.4% | – |
| CC(=NNC(=N)N)c1cn(S(=O)(=O)c2ccccc2[N+](=O)[O-])c2ccccc12 [Example 51, 2-(1-{1-[(2-nitrophenyl)sulfonyl]-1H-indol-3-yl}ethylidene)hydrazinecarboximidamide] | 70.1% | – |
| CC(=NNC(=N)N)c1cn(S(=O)(=O)c2ccccc2)c2ccc([N+](=O)[O-])cc12 [Example 18, 2-{1-[5-nitro-1-(phenylsulfonyl)-1H-indol-3-yl]ethylidene}hydrazinecarboximidamide] | 77.9% | – |
| CC(=NNC(=N)N)c1cn(S(=O)(=O)c2ccc(-c3cc(C(F)(F)F)n(C)n3)s2)c2ccccc12 [Example 45, 2-{1-[1-({5-[1-methyl-5-(trifluoromethyl)-1H-pyrazol-3-yl]thien-2-yl}sulfony)-1H-indol-3-yl]ethylidene}hydrazinecarboximidamide] | – | 23.5% |
| CC(=NNC(=N)N)c1cn(S(=O)(=O)c2ccc(-c3ccccn3)s2)c2ccccc12 [Example 53, 2-(1-{1-[(5-pyridin-2-ylthien-2-yl)sulfonyl]-1H-indol-3-yl}ethylidene)hydrazinecarboximidamide] | 38.4% | – |
| COc1ccc(Cl)cc1S(=O)(=O)n1cc(C(C)=NNC(=N)N)c2ccccc21 [Example 34, 2-(1-{1-[(5-chloro-2-methoxyphenyl)sulfonyl]-1H-indol-3-yl}ethylidene)hydrazinecarboximidamide] | 48% | – |
| CCCCC(=NNC(=N)N)c1cn(S(=O)(=O)c2ccccc2)c2ccc(Cl)cc12 [Example 85, 2-{1-[5-chloro-1-(phenylsulfonyl)-1H-indol-3-yl]pentylidene}hydrazinecarboximidamide] | 57.5% | – |
| CC(=NNC(=N)N)c1cn(S(C)(=O)=O)c2ccc(Cl)cc12 [Example 72, 2-{1-[5-chloro-1-(methylsulfonyl)-1H-indol-3-yl]ethylidene}hydrazinecarboximidamide] | 75.1% | – |

Same assay, conditions: test compound dose 1000 nM; [3H]-LSD 3.0 nM; read-out: % Inhibition

| Structure (SMILES) | inhibition at 1 µM |
| --- | --- |
| CCCCC(=NNC(=N)N)c1c(-c2ccc(Cl)cc2)n(S(C)(=O)=O)c2ccccc12 [Example 91, 2-{1-[2-(4-chlorophenyl)-1-(methylsulfonyl)-1H-indol-3-yl]pentylidene}hydrazinecarboximidamide] | 9% |
| COc1ccc(S(=O)(=O)n2cc(C(C)=NNC(=N)N)c3cc(Cl)ccc32)cc1OC [Example 87, 2-(1-{5-chloro-1-[(3,4-dimethoxyphenyl)sulfonyl]-1H-indol-3-yl}ethylidene)hydrazinecarboximidamide] | 88.9% |
| CCCCC(=NNC(=N)N)c1cn(S(=O)(=O)c2ccc3ccccc3c2)c2cc(F)ccc12 [Example 110, 2-{1-[6-fluoro-1-(2-naphthylsulfonyl)-1H-indol-3-yl]pentylidene}hydrazinecarboximidamide] | 60.2% |
| Cc1ccc(S(=O)(=O)n2cc(C=NNC3=NCCCN3)c3ccccc32)cc1 [Example 1, 1-[(4-methylphenyl)sulfonyl]-1H-indole-3-carboxaldehyde 1,4,5,6-tetrahydropyrimidin-2-ylhydrazone] | 56% |
| CCCCC(=NNC(=N)N)c1cn(S(=O)(=O)c2ccc3ccccc3c2)c2ccccc12 [Example 65, 2-{1-[1-(2-naphthylsulfonyl)-1H-indol-3-yl]pentylidene}hydrazinecarboximidamide] | 62.3% |
| COc1ccc(S(=O)(=O)n2cc(C(C)=NNC(=N)N)c3ccc(F)cc32)cc1OC [Example 115, 2-(1-{1-[(3,4-dimethoxyphenyl)sulfonyl]-6-fluoro-1H-indol-3-yl}ethylidene)hydrazinecarboximidamide] | 89.2% |
| CCCCC(=NNC(=N)N)c1cn(S(=O)(=O)CCCC)c2ccccc12 [Example 59, 2-{1-[1-(butylsulfonyl)-1H-indol-3-yl]pentylidene}hydrazinecarboximidamide] | 77.7% |
| CCCCC(=NNC(=N)N)c1cn(S(=O)(=O)c2ccc3ccccc3c2)c2ccc(Cl)cc12 [Example 82, 2-{1-[5-chloro-1-(2-naphthylsulfonyl)-1H-indol-3-yl]pentylidene}hydrazinecarboximidamide] | 46.9% |
| CC(=NNC(=N)N)c1c(-c2ccc(Cl)cc2)n(S(C)(=O)=O)c2ccccc12 [Example 90, 2-{1-[2-(4-chlorophenyl)-1-(methylsulfonyl)-1H-indol-3-yl]ethylidene}hydrazinecarboximidamide] | 63.5% |
| CCCCC(=NNC(=N)N)c1cn(S(C)(=O)=O)c2ccccc12 [Example 56, 2-{1-[1-(methylsulfonyl)-1H-indol-3-yl]pentylidene}hydrazinecarboximidamide] | 76.9% |
| CC(=NNC(=N)N)c1cn(S(=O)(=O)c2ccccc2)c2ccccc12 [Example 9, 2-{1-[1-(phenylsulfonyl)-1H-indol-3-yl]ethylidene}hydrazinecarboximidamide] | 99.5% |
